Results as given in patent publication US11021500B2, “Process for preparing optically active 2,3-bisphosphino-substituted quinoxalines” (Nippon Chemical Industrial Co., Ltd., priority 2017, dated 2021).

## C[P@@](c1nc2ccccc2nc1[P@](C)C(C)(C)C)C(C)(C)C [Compound (a3), (R,R)-2,3-bis(tert-butylmethylphosphino)quinoxaline]
  melting point: 102 to 103 °C
